“Also recorded” adds a separate entry of the source.

One assay concerns the target T1, FGF23 binding to FGFR2c (Homo sapiens, UniProt P21802).
T1 construct: Fc-coupled FGFR ectodomains were immobilized on protein A/G beads; purchased R&D Systems 2604FG025/CF or 2629FG025/CF; 712FR050
As to the kind of experiment: Plate-based binding, FGF23 coated, then sKL, heparin or PBS, then Fc-FGFR. To be noted: with sKL, with heparin 0.4 USP, or alone. The protocol:
(§1) Proteins were coated on 96-well plates (MaxiSorp; 439454, Thermo Fisher Scientific), and proteins were added to wells in 100 μl of enzyme-linked immunosorbent assay (ELISA) coating buffer (E107, Bethyl Laboratories) with a lid placed overtop and incubated at 4° C. overnight. Plates were washed 5× with 350 μl of assay buffer (50 mM Tris [pH 7.4], 200 mM NaCl, 0.01% Tween 20) on a 50 TS microplate washer (BioTek). Plates were blocked for 1 hour in 200 μl of assay buffer with 0.5% BSA. Plates were washed as before, and proteins were incubated on plates in 100 μl of assay buffer with 0.5% BSA. Proteins or heparin was incubated in orders described in the respective figure legends. Assays using FLAG-tag-based detection were incubated with anti-FLAG coupled to HRP at 1:20,000, and assays using Fc detection were incubated with anti-human Fc coupled to HRP at 1:10,000. Plates were washed as above, and 100 μl of 3,3′,5,5′-tetramethylbenzidine (TMB) substrate (E102, Bethyl Laboratories) was added for 15 to 20 minutes until positive wells developed a dark blue color. Reactions were stopped with ELISA stop solution (E115, Bethyl Laboratories) and analyzed using the Synergy HI plate reader (BioTek) at 450 nm wavelength. […] As a control to remove background absorbance values, wells were coated with an equal amount of BSA to match the amount of protein coated in experimental wells and treated the same as experimental wells. To study the effects of sKL on the binding between paracrine FGFs and FGFRs, plates were run as above except coated with paracrine FGFs. Fc-FGFR1 was preincubated with sKL or vehicle for 60 minutes, and then the combination was added to wells and the assay was run as before.

Another assay addresses T2, FGF23 binding to FGFR1c (Homo sapiens, UniProt P11362+Q9GZV9).
T2 construct: Fc-coupled FGFR ectodomains were immobilized on protein A/G beads; purchased R&D Systems 2604FG025/CF or 2629FG025/CF; 658FR050
The description is as above. To be noted: with sKL, with heparin 0.4 USP, or alone. The procedure:
as §1

For the next assay, the target named is T3, FGF23 binding to FGFR4 (Homo sapiens, UniProt P22455+Q9GZV9).
T3 construct: Fc-coupled FGFR ectodomains were immobilized on protein A/G beads; purchased R&D Systems 2604FG025/CF or 2629FG025/CF; 685FR050
Described as above. To be noted: with sKL, with heparin 0.4 USP, or alone. The protocol: as §1

Another assay addresses T4, FGF23 binding to FGFR3c (Homo sapiens, UniProt P22607+Q9GZV9).
T4 construct: Fc-coupled FGFR ectodomains were immobilized on protein A/G beads; purchased R&D Systems 2604FG025/CF or 2629FG025/CF; 766FR050
The assay is described as above. Particulars: with sKL, with heparin 0.4 USP, or alone. The protocol: as §1

In assay [1] the test system is FGF19 binding to FGFR isoforms 1c, 2c, 3c, 4. As to the kind of experiment: Pull-down and plate binding of FGF19 to FGFR isoforms with sKL or heparin. Further details: species or system human. The procedure:
To study the interaction between Fc-tagged FGFR isoforms (Fc-FGFR), FGF isoforms, and sKL, immunoprecipitation studies were conducted. Protein A beads (6501, BioVision) and protein G beads (6511, BioVision) were used at 25 μl of a 50% stock slurry per sample in a total bead volume of 50 μl. Beads were washed 5× in activity buffer (50 mM Tris [pH 7.4], 200 mM NaCl, 0.01% Tween 20). Bead spin-down assays were all performed for 2 minutes at 5000 g. Beads were resuspended in 1 ml of activity buffer in a 1.5-ml snap cap tube. One microgram of Fc-FGFR1 to 4 was incubated with the beads for 1 hour on a bead rotator. Control samples were incubated with 2 μg of anti-FGF antibody instead of Fc-FGFR. […] Samples were analyzed using SDS-PAGE and Western blotting.
Proteins were coated on 96-well plates (MaxiSorp; 439454, Thermo Fisher Scientific), and proteins were added to wells in 100 μl of enzyme-linked immunosorbent assay (ELISA) coating buffer (E107, Bethyl Laboratories) with a lid placed overtop and incubated at 4° C. overnight. […] Reactions were stopped with ELISA stop solution (E115, Bethyl Laboratories) and analyzed using the Synergy HI plate reader (BioTek) at 450 nm wavelength. […] As a control to remove background absorbance values, wells were coated with an equal amount of BSA to match the amount of protein coated in experimental wells and treated the same as experimental wells. […]

A further assay addresses T5, FGF7 binding to FGFR1c (Homo sapiens, UniProt P11362).
T5 construct: a chimeric protein consisting of the FGFR1 ectodomain and the Fc region of a human IgG; purchased R&D Systems 251-KG/CF; 658FR050
As to the kind of experiment: Plate-based binding of paracrine FGF to Fc-FGFR1c with heparin and/or sKL. To be noted: 0.4 USP heparin. The protocol: as §1

The target in a further assay is T6, FGF2 binding to FGFR1c (Homo sapiens, UniProt P11362).
T6 construct: a chimeric protein consisting of the FGFR1 ectodomain and the Fc region of a human IgG; purchased R&D Systems 233-FB/CF; 658FR050
T6 sequence (P11362 22-376 limits assumed): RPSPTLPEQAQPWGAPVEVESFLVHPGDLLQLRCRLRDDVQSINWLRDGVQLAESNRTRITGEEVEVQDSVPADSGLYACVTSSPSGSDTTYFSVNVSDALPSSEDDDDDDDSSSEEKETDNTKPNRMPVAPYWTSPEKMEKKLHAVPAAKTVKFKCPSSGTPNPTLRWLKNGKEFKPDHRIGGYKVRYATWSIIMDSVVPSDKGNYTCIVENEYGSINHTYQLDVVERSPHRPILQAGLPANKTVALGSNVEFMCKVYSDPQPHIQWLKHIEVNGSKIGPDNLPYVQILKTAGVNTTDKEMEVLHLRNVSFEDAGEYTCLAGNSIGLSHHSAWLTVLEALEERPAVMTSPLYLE
The assay is described as above. To be noted: 0.4 USP heparin before incubation with FGFR1c. The procedure:
as §1

The target in a further assay is T7, FGF5 binding to FGFR1c (Homo sapiens, UniProt P11362).
T7 construct: a chimeric protein consisting of the FGFR1 ectodomain and the Fc region of a human IgG; purchased R&D Systems 237-F5/CF; 658FR050
The assay is described as above. To be noted: 0.4 USP heparin. The protocol: as §1

T4 sequence (Q9GZV9 25-251): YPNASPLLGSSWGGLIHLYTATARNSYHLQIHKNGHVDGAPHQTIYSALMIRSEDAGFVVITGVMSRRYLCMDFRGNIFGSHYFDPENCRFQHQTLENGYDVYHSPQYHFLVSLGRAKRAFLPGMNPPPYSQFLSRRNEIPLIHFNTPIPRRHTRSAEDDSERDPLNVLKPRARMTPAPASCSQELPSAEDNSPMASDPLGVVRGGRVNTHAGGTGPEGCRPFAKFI
T4 sequence (P22607 23-375 limits assumed): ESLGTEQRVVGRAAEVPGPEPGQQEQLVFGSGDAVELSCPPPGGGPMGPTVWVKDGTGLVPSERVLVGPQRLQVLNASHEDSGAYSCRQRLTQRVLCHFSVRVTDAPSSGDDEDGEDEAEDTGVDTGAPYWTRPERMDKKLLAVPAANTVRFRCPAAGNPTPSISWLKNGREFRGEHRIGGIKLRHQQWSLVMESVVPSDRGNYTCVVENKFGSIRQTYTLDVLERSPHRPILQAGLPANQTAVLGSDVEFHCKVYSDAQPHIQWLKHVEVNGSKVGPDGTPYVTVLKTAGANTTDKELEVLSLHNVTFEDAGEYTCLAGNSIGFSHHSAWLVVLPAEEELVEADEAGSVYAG
T3 sequence (Q9GZV9 25-251): as the sequence (Q9GZV9 25-251) above
T3 sequence (P22455 22-369 limits assumed): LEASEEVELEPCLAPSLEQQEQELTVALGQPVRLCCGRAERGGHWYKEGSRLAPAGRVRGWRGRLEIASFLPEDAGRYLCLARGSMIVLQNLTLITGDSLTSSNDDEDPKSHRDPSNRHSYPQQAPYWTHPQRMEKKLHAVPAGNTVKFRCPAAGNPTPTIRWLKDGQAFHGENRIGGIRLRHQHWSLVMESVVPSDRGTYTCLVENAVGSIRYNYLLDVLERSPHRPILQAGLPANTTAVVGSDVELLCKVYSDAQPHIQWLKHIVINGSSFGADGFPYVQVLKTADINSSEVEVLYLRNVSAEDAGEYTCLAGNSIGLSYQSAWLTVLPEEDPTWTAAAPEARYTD
T2 sequence (Q9GZV9 25-251, one chain of several): as the sequence (Q9GZV9 25-251) above
T1 sequence (P21802 22-377 limits assumed): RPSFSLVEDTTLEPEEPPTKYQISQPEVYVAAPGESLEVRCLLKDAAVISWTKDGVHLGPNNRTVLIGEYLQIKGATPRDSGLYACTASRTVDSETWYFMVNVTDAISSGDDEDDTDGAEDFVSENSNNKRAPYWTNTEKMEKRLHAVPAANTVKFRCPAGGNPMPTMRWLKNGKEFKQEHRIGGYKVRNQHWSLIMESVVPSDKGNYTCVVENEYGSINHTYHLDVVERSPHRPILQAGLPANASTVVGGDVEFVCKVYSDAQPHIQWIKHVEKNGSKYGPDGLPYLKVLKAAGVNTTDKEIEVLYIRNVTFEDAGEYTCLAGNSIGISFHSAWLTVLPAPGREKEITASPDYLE
Chain of FGF19 binding to FGFR isoforms 1c, 2c, 3c, 4 (O95750 25-216): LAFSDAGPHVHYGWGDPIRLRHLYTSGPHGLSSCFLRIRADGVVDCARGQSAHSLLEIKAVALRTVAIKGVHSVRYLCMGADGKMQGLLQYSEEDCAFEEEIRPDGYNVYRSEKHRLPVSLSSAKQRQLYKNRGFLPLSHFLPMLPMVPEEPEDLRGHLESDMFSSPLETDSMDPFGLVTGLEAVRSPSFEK

Turning to heparin [reference compound], the “binding of coated FGF23 to Fc-FGFR2c” value at FGF23 binding to FGFR2c is listed as “to a much lesser extent to FGFR2c; also recorded: weaker binding to FGFR2c”. Further, the “binding of coated FGF23 to Fc-FGFR1c” value on FGF23 binding to FGFR1c is “no measurable binding”. The “binding of coated FGF23 to Fc-FGFR4” value at FGF23 binding to FGFR4 is recorded as “significantly increased; also recorded: the strongest”. Also, the “binding of coated FGF23 to Fc-FGFR3c” value at FGF23 binding to FGFR3c is given as “no measurable binding”. Besides, the “binding of FGF19 to any of the FGFR isoforms” value in assay [1] is recorded as “does not mediate binding”. Further, at FGF7 binding to FGFR1c, the “FGF7 binding to FGFR1c with heparin” value is reported as “did not induce binding”. In addition, the “FGF2 binding to FGFR1c with heparin” value on FGF2 binding to FGFR1c is “increased the binding of FGF2”; on FGF2 binding to FGFR1c (listed as heparin), “significantly increased; also recorded: increased FGF2 binding”. In addition, on FGF5 binding to FGFR1c, the “FGF5 binding to FGFR1c with heparin” value was “increased the binding of FGF2 and FGFS to FGFR1c”.

The values are drawn from patent publication US20240384250A1, “FIBROBLAST GROWTH FACTOR 23 MODULATING COMPOUNDS” (THE UAB RESEARCH FOUNDATION, priority 2021, published 2024).
